Laboratory results from patent US20170362210A1, “ANTI-ESTROGENIC COMPOUNDS” (PFIZER INC., priority 2015, published 2017).
Like-named read-outs stand apart in the source and are kept apart here.

What was measured:
[1] = tested on: estrogen-responsive reporter gene (ERE-tk109-Luc) in MCF-7 cells; experiment: Inhibition of E2-induced transcription, ERE-tk109-Luc reporter gene in MCF-7 cells; assay type: cell-based, human; conditions: 100 pM 17β-estradiol (E2), 18-22 hours, read-out: IC50, inhibition of E2-induced transcription in breast cells
Description: Representative compounds were tested for their inhibitory activity of estrogen according to the assay methods described in Hodges-Gallagher, L., Valentine, C. V., El Bader, S. and Kushner, P. J. (2007) “Histone Deacetylase Inhibitors Enhance the Efficacy of Hormonal Therapy Agents on Breast Cancer Cells and Blocks Anti-estrogen-Driven Uterine Cell Proliferation” Breast Cancer Res Treat, November; 105(3):297-309. Specifically, an estrogen-responsive reporter gene (ERE-tk109-Luc) was transiently transfected into MCF-7 cells and treated with anti-estrogens in triplicate in the presence of 100 pM 17β-estradiol (E2) for 18-22 hours. Luciferase activity was normalized to activity of E2 alone and IC50's were calculated using the least squares fit method.

[2] = tested on: AP activity in ECC-1 cells; experiment: Alkaline phosphatase (AP) assay in ECC-1 cells co-treated with 500 pM E2; assay type: cell-based, human; conditions: 3 days
Description: (§1) Method for performing the alkaline phosphatase (AP) assay. ECC-1 cells (American Type Culture Collection, Manassas, Va.) were maintained in RPMI medium plus 10% fetal bovine serum at 37° C. At the beginning of the assay trypsinized cells were resuspended in RPMI medium plus 5% charcoal dextran stripped serum (CDSS, (Hyclone, Logan, Utah)) and plated at a density of 25-50 k cells per well into a 96-well plate for at least 6 hours. Representative compounds were diluted in serum-free medium and added 1:1 to plated cells in replicate wells (2.5% CDSS final). Plates were incubated for 3 days at 37° C. and subsequently frozen at −80° C. to lyse cells after removing the medium. Thawed plates were incubated with a chromogenic substrate of AP, p-nitrophenyl phosphate (Invitrogen, Grand Island, N.Y.), for 40 minutes at 40° C. Absorbances were read at 405 nm using a plate spectrophotometer. AP activity was normalized to 500 pM 17β-estradiol (E2), reported as the maximum activity observed for each individual experiment, regardless of dose.
AP activity was assayed as in Example 28 but cells were co-treated with 500 pM E2.

[3] = tested on: AP activity in ECC-1 cells; experiment: Alkaline phosphatase (AP) assay in ECC-1 uterine cells, induction of AP activity; assay type: cell-based, human; conditions: 3 days, normalized to 500 pM E2, maximum activity observed regardless of dose
Description: as §1

[4] = tested on: MCF-7 breast cancer cells; experiment: Inhibition of E2-stimulated proliferation of MCF-7 breast cancer cells; assay type: cell-based, human; conditions: 100 pM E2, hormone-depleted medium, 6-8 days
Description: Proliferation of MCF-7 breast cancer cells was measured using a fluorescent DNA binding dye 6-8 days after treatment in triplicate with representative compounds in the presence of 100 pM E2 in hormone-depleted medium. IC50's were calculated from individual experiments as in Example 25.

ERα = molecular target: T1, ERα (Homo sapiens, UniProt P03372); experiment: ERα expression in MCF-7 cell lysates (immunoblot); assay type: cell-based; conditions: MCF-7 cells, 100 nM compound, serum-free medium, 24 hours, immunoblot band intensity
T1 construct: ERα expression was detected in MCF-7 cell lysates treated with 100 nM antiestrogens in serum-free medium for 24 hours; endogenous in cells; host or cells: MCF-7
T1 sequence (P03372 1-595): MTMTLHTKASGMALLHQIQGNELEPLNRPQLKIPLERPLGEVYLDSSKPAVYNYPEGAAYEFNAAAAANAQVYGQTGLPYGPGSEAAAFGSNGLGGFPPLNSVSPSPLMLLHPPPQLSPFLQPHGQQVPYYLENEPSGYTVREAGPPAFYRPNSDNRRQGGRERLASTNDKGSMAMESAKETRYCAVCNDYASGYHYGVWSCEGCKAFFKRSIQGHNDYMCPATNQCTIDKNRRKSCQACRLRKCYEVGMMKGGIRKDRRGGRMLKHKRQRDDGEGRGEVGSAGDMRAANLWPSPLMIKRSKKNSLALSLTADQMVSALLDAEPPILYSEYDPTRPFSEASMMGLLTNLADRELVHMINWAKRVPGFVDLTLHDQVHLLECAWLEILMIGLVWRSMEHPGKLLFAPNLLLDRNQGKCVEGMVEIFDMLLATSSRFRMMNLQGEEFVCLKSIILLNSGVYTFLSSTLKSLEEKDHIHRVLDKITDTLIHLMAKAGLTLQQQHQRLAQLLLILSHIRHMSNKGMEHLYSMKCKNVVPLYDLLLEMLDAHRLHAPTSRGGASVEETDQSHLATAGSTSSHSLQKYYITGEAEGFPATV
Description: ERα expression was detected in MCF-7 cell lysates treated with 100 nM antiestrogens in serum-free medium for 24 hours and immunoblotted with an antibody specific to ERα.
Band intensity was normalized relative to vehicle for each individual experiment and listed in Table 3 (Relative change ERα levels (% vehicle)).

[5] = Homo sapiens, MCF7, MCF-7 cells

| SMILES | IC50 [1, 5] [nM] | AP activity (% E2), cells co-treated with 500 pM E2 [2] [% E2] | Induction of AP activity in uterine cells (% E2) [3] [% E2] | IC50 [4, 5] [nM] | Relative change ERα levels (% vehicle) (ERα) [% veh] | IC50 ([1]; MCF-7 cells) [nM] | IC50 ([4]; MCF-7 cells) [nM] |
| --- | --- | --- | --- | --- | --- | --- | --- |
| CCCN1CC(Oc2ccc(C3Oc4cc(O)ccc4C(C)=C3c3ccc(F)cc3Cl)cc2)C1 (centres unmarked) [Compound 116, 3-(2-chloro-4-fluorophenyl)-4-methyl-2-(4-((1-propylazetidin-3-yl)oxy)phenyl)-2H-chromen-7-ol] | 5 | 24 | 9 | 5 |  |  |  |
| CC1=C(c2ccc(O)cc2)C(c2ccc(OC3CN(CCC(F)(F)F)C3)cc2)Oc2cc(O)ccc21 (single isomer, unassigned) [Compound 111, 3-(4-hydroxyphenyl)-4-methyl-2-(4-((1-(3,3,3-trifluoropropyl)azetidin-3-yl)oxy)phenyl)-2H-chromen-7-ol] |  | 61 | 32 |  | 82 | 165 | > 300 |
| CCCN1CC(Oc2ccc(C3Oc4cc(O)ccc4C(C)=C3c3ccc(O)cc3)cc2F)C1 (single isomer, unassigned) [Compound 109, 2-(3-fluoro-4-((1-propylazetidin-3-yl)oxy)phenyl)-3-(4-hydroxyphenyl)-4-methyl-2H-chromen-7-ol] |  | 42 | 18 |  |  | 109 | 40 |
| CC1=C(c2ccc(O)cc2)C(c2ccc(OC3CN(CCC(F)(F)F)C3)cc2)Oc2cc(O)ccc21 (single isomer, unassigned) [Compound 110, 3-(4-hydroxyphenyl)-4-methyl-2-(4-((1-(3,3,3-trifluoropropyl)azetidin-3-yl)oxy)phenyl)-2H-chromen-7-ol] |  | 36 | 35 | 216 | 104 | 14 |  |
| CCCN1CC(Oc2ccc(C3Oc4cc(O)ccc4C(C)=C3c3ccc(F)cc3)cc2)C1 (centres unmarked) [Compound 115, 3-(4-fluorophenyl)-4-methyl-2-(4-((1-propylazetidin-3-yl)oxy)phenyl)-2H-chromen-7-ol] | 10 | 42 | 20 | 15 |  |  |  |
| CCCN1CC(Oc2ccc(C3Oc4cc(O)ccc4C(C)=C3c3ccccc3C(C)C)cc2)C1 (centres unmarked) [Compound 119, 3-(2-isopropylphenyl)-4-methyl-2-(4-((1-propylazetidin-3-yl)oxy)phenyl)-2H-chromen-7-ol] | 15 | 18 | 44 | 33 | 36 |  |  |
| CCCN1CC(Oc2ccc(C3Oc4cc(O)ccc4C(C)=C3c3ccc(O)cc3)cc2)C1 (centres unmarked) [Compound 104, 3-(4-hydroxyphenyl)-4-methyl-2-(4-((1-propylazetidin-3-yl)oxy)phenyl)-2H-chromen-7-ol] | 2 | 4 | 5 | 6 | 44 |  |  |
| CCCN1CC(Oc2ccc(C3Oc4cc(O)ccc4C(C)=C3c3ccccc3)cc2)C1 (single isomer, unassigned) [Compound 118, 4-methyl-3-phenyl-2-(4-((1-propylazetidin-3-yl)oxy)phenyl)-2H-chromen-7-ol] |  | 16 | 104 |  | 55 | 254 | 132 |
| CCCN1CC(Cc2ccc(C3Oc4cc(O)ccc4C(C)=C3c3ccc(O)cc3)cc2)C1 (single isomer, unassigned) [Compound 102, 3-(4-hydroxyphenyl)-4-methyl-2-(4-((1-propylazetidin-3-yl)methyl)phenyl)-2H-chromen-7-ol] |  | 8 | 9 |  | 50 | 2 | 6 |
| CCCN1CC(Cc2ccc(C3Oc4cc(O)ccc4C(C)=C3c3ccc(O)cc3)cc2F)C1 (single isomer, unassigned) [Compound 113, 2-(3-fluoro-4-((1-propylazetidin-3-yl)methyl)phenyl)-3-(4-hydroxyphenyl)-4-methyl-2H-chromen-7-ol] |  | 15 | 17 |  | 38 | 13 | 24 |
| CCCN1CC(Oc2ccc(C3Oc4cc(O)ccc4C(C)=C3c3ccccc3)cc2)C1 (centres unmarked) [Compound 114, 4-methyl-3-phenyl-2-(4-((1-propylazetidin-3-yl)oxy)phenyl)-2H-chromen-7-ol] | 5 | 23 | 15 | 14 |  |  |  |
| CCCN1CC(Oc2ccc(C3Oc4cc(O)ccc4C(C)=C3c3ccc(O)cc3)cc2F)C1 (single isomer, unassigned) [Compound 108, 2-(3-fluoro-4-((1-propylazetidin-3-yl)oxy)phenyl)-3-(4-hydroxyphenyl)-4-methyl-2H-chromen-7-ol] |  | 4 | 3 |  |  | 1 | 9 |
| CCCN1CC(Oc2ccc(C3Oc4cc(O)ccc4C(C)=C3c3ccc(O)cc3)cc2F)C1 (centres unmarked) [Compound 107, 2-(3-fluoro-4-((1-propylazetidin-3-yl)oxy)phenyl)-3-(4-hydroxyphenyl)-4-methyl-2H-chromen-7-ol] | 5 | 4 | 3 | 13 |  |  |  |
